Several values for one entry are separate records, joined by “and”; a condition that tells them apart may be missing. Identical values can stand only once.
Key:
RecG⋅DNA(A40:B40) [1] = biological target: T1, RecG⋅DNA(A40:B40) (Thermotoga maritima, UniProt Q9WY48); assay: Single turnover mant fluorescence, excess RecG⋅DNA over mantATP; format: biochemical
T1 construct: made in house
T1 sequence (Q9WY48 1-780): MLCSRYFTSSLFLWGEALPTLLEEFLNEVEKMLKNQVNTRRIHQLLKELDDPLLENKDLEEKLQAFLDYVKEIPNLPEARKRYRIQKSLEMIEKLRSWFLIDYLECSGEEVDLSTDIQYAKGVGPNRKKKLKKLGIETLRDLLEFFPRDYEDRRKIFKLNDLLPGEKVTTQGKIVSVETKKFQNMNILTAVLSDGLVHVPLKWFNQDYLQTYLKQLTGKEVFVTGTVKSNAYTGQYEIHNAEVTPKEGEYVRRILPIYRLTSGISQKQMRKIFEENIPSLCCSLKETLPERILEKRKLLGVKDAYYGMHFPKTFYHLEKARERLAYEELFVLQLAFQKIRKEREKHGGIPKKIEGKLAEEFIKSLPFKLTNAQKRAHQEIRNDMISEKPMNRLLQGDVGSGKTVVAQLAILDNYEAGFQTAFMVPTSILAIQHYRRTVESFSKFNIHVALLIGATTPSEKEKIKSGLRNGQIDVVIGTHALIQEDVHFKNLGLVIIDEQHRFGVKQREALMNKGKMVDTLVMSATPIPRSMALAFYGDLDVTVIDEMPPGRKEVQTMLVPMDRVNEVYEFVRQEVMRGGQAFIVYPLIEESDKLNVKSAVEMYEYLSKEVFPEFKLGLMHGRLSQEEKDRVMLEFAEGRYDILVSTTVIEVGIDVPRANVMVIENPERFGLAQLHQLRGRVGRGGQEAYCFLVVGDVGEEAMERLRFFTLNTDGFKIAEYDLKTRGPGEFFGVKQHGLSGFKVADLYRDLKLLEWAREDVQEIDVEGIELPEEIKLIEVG
Procedure: Extra information relating to changes in a single ATPase cycle can be obtained by mixing excess RecG⋅DNA(A40:B40) with mantATP (Figure 4A). […] The first change in fluorescence is presumably due to binding. After fitting to a double exponential, the observed rate constant for the initial change was linearly dependent on RecG concentration over the small range possible (0.5 µM –2.5 µM), limited by protein precipitation at higher concentrations. Due to the low concentrations, a hyperbolic dependence would not be observed. The observed rate constant of the second increase in fluorescence, 0.22 (±0.05) s^−1 (Figure 4A), was independent of RecG concentration. This second phase is likely to be due to the cleavage step, leading to the formation of bound mantADP.
Figure 4 Kinetic measurement of mantATP with excess of RecG and DNA: binding, hydrolysis and Pi release. The concentrations for all experiments were 0.5 µM mantATP, 2.5 µM RecG, 5 µM DNA (A40:B40) and 10 µM MDCC-PBP (for Pi measurement). All measurements were carried out at 20°C in the buffer described in Materials and Methods. (A) Time course of mant fluorescence (solid line), mantADP formation (circles) and Pi release (dashed line), measured as described in materials and methods. […] (B) Simulation of these time courses, based upon a global model for a single turnover of mantATP as described in the text. (C) The time course of mant fluorescence upon mixing 0.5 µM mantATP and 2.5 µM RecG with 5 µM DNA junction (A40:B40) after a first mixing of 5 µM RecG and 1 µM mantATP and aging for 1 s.
(§1) Stopped-flow experiments were performed in a HiTech SF61DX2 apparatus (TgK Scientific Ltd, Bradford-on-Avon, UK) with a mercury-xenon light source and HiTech KinetAsyst 3 or Kinetic Studio 1 software. For MDCC-PBP fluorescence, the excitation wavelength used was 436 nm and a 455 nm cut-off filter (Schott glass) used to collect emitted light. The signal was calibrated using known concentrations of Pi. The solutions contained the Pi mop, to minimize phosphate contamination and comprising 0.01 unit ml^−1 bacterial purine nucleoside phosphorylase and 200 µM 7-methylguanosine. For mant fluorescence, 366 nm was used to excite and a 400 nm cut-off filter (Schott glass) used to collect light. Measurements of Cy3 fluorescence used 547 nm excitation and a 570 nm cut-off filter. In experiments described, the quoted concentrations are those in the mixing chamber, except where stated. Data were fitted to theoretical curves using the HiTech software or Grafit.

RecG⋅DNA(A40:B40) [2] = biological target: T1, RecG⋅DNA(A40:B40); assay: Single turnover Pi release kinetics with MDCC-PBP; format: biochemical
Procedure: Using the phosphate biosensor, MDCC-PBP [13], the kinetics of Pi release were measured under the same conditions (Figure 4A). Fitting the trace by a lag then a single exponential increase gave rate constants of 3.3 s^−1 and 0.21 s^−1. This rate constant for the lag was similar to the observed rate constant for binding at this concentration. The exponential increase had the same rate constant for the slow phase of the mant fluorescence and for the quench-flow measurement of mantADP formation. Thus Pi release occurs rapidly, following the rate-determining cleavage step.
as §1

[3] = 0.5 µM mantATP, 2.5 µM RecG, 5 µM DNA

SMILES: CNc1ccccc1C(=O)O[C@H]1[C@@H](O)[C@H](n2cnc3c(N)ncnc32)O[C@@H]1COP(=O)(O)OP(=O)(O)OP(=O)(O)O [mantATP, 2′(3′)-O-(N-methylanthraniloyl)ATP]
- observed rate constant of the second increase in fluorescence (RecG⋅DNA(A40:B40) [1]; 0.5 µM mantATP, excess RecG⋅DNA, independent of RecG concentration): 0.22 (±0.05) s^−1
- k +2 (cleavage step) (RecG⋅DNA(A40:B40) [1]; 20°C): 0.2 s⁻¹ and 0.22 s⁻¹
- initial small increase in fluorescence as part of overall change (RecG⋅DNA(A40:B40) [1]; excess RecG⋅DNA over mantATP): ~20%
- fluorescence intensity increase of bound nucleotide relative to free nucleotide (RecG⋅DNA(A40:B40) [1]; excess RecG⋅DNA(A40:B40)): 1.5 fold
- Pi release: rate constant of exponential increase (RecG⋅DNA(A40:B40) [2]; [3]): 0.21 s⁻¹
- Pi release: rate constant of lag (RecG⋅DNA(A40:B40) [2]; [3]): 3.3 s⁻¹
- k +3 (Pi release) (RecG⋅DNA(A40:B40) [2]; 20°C, Table 2 summary): >10 s⁻¹

— paper PMC3368886, “ATPase Cycle and DNA Unwinding Kinetics of RecG Helicase” (PLoS ONE, 2012)
